As usually defined, the bioavailability is the share of a dose that reaches the circulation, judged against a reference dose that is usually intravenous.

Several values for one entry are separate records, joined by “and”; a condition that tells them apart may be missing. Identical values can stand only once. Entries after “also recorded” stand apart in the source; their conditions may differ. Like-named read-outs stand apart in the source and are kept apart here.

Data set [1] can be described thus: Solubility in water at pH 7. The class given is physicochemical. The method, then:
For instance, whereas the free base only sparingly dissolves in water at pH 7 (<1 mg/mL), Forms HCl2 and HCl3 are highly soluble in water at the same pH (>100 mg/mL). The higher solubility of the HCl salt allows continued investigation of the compound at higher concentrations, which is advantageous e.g. in toxicology studies. […] It is expected that the increased bioavailability (and thus the increased exposure) of the HCl salt may lead to an improved efficacy of PN6047 in the treatment of pain and other indications as mentioned herein. Possibly, the increased bioavailability may allow the HCl salt to be administered in substantially lower doses than the free base. The unexpected increase in bioavailability of the HCl salt may also enable the use of sustained release formulations of the compound.

A short description of data set [2]: Bioavailability study in rats. The class given is in vivo. As to conditions: male, Wistar, blood, rat, single dose, vs 1 mg/kg intravenous, read-out: Bioavailability (Fabs). The method, then: Male Wistar rats were used. Six groups of four animals each were used. Two groups were administered a single intravenous dose of 1 mg/kg of the free base or the HCl2 salt, one group was administered a single oral dose of 3 mg/kg of the free base, and three groups were administered a single oral dose of 3, 10 or 50 mg/kg of the HCl2 salt. Blood samples were collected after 0.25, 0.5, 1, 2, 4, 6, 8 and 24 hours following intravenous administration, and after 0.083, 0.25, 0.5, 1, 2, 4, 6, 8 and 24 hours following oral administration. The samples were analyzed using an LC/MS/MS system. The bioavailability (Fabs) is shown in Table 7 and was calculated as follows: […]

Data set [3] is described as follows: Dynamic vapour sorption (DVS) hygroscopicity. In kind it is physicochemical. The note with it: for hygroscopicity (classification as per the European Pharmacopoeia) / water uptake: 25° C./80% RH; for form by HT-XRPD after the DVS cycle: sorption-desorption-sorption 40-95-0-45% RH. The method, then: Analyses were performed on a DVS-1 system from Surface Measurement Systems (London, UK). Weight equilibration per step was set at dm/dt<0.002 for a minimum of 1 hour or a maximum of 6 hours. The sample was subjected to a sorption-desorption-sorption cycle running from 40 to 95 to 0 to 45% RH, at a constant temperature of 25° C. One cycle consisted of 20 steps, those between 0 and 90% RH were taken in 10% RH each. Afterwards the sample was measured by HT-XRPD.
Forms HCl2 and HCl3 were subjected to DVS measurements to determine the hygroscopicity of these two forms. The material initially took up water slowly with increasing relative humidity (RH) up to about 90% RH. The change in mass was approximately 3.3%, corresponding to about 1 molecule of water per molecule of PN6047. […] The material was then gradually dried from 95 to 0% RH in steps of 10% RH. The corresponding mass change upon drying was different than the initial mass increase upon hydration. Finally, from 0 to 40% RH, the water uptake proceeded in the same way as in the preceding dehydration step. […] It is believed that the uptake of the 2 additional molecules of water may have led to a change from form HCl2 to form HCl3.
The material gradually took up water with increasing relative humidity (RH) up to 95% RH. […] The material was then gradually dried from 95 to 0% RH in steps of 10% RH. The corresponding mass change upon drying was approximately the same as the initial mass increase upon hydration. Finally, from 0 to 40% RH, the water uptake proceeded in the same way as the preceding dehydration step.

Data set [4] in a line: Incubation at high humidity or under vacuum, form by XRPD. In kind it is physicochemical. As to conditions: 2 days. How it is done:
To further understand the hygroscopic nature of form HCl2, a sample of the material was incubated at 85% RH at room temperature for 2 days.
A sample of Form HCl3 was further incubated at 50° C./1 mbar for 2 days to determine whether conversion to Form HCl2 would take place.

Data set [5] in a line: Solution stability study in saline (LCMS). In kind it is physicochemical. The method, then: Experiments were performed in saline (0.9% NaCl in water). Two stock solutions of Form HCl2 in saline were prepared, one with a concentration of 10 mg/mL and one with a concentration of 100 mg/mL. The 10 mg/mL stock solution was prepared by dissolving 56 mg of material in 5 mL of saline. The 100 mg/mL stock solution was prepared by dissolving 196.2 mg of material in 1.75 mL saline. For each experiment involving 10 mg/mL, 0.5 mL of stock solution was transferred to an HPLC vial whereas for each experiment involving 100 mg/mL, 0.15 mL of stock solution was transferred to an HPLC vial. The HPLC vials were closed with a screw cap and placed in a Crystal16™ apparatus and incubated at different temperatures.
After the incubation time, the samples were diluted with acetonitrile/water 1:1 (v/v) and measured by LCMS to determine the API peak area.

A short description of data set [6]: Solid-state stability study (XRPD, TGA, LCMS). The class given is physicochemical. The note with it: for LCMS API / TGA mass loss / XRPD: solid state. The method, then:
The solid-state stability of Form HCl2 was determined by incubating samples of approximately 18 mg at different conditions (temperature and relative humidity). After 1 week and 4 weeks, the samples were analyzed by XRPD to determine the polymorphic form, by TGA to determine the mass loss upon heating and by LCMS to determine the API purity. The experimental details and results are described in Table 6.

Turning to `CN(C)C(=O)c1ccc(C(=C2CCN(Cc3cncs3)CC2)c2cccc(C(N)=O)c2)cc1` [Free base, 4-[(3-carbamoylphenyl)[1-(1,3-thiazol-5-ylmethyl)piperidin-4-ylidene]methyl]-N,N-dimethylbenzamide], in data set [1], the solubility in water was less than 1000 µg/mL. The bioavailability in data set [2] (oral 3 mg/kg) was 8%.

For `CN(C)C(=O)c1ccc(C(=C2CCN(Cc3cncs3)CC2)c2cccc(C(N)=O)c2)cc1` [Form HCl2, 4-[(3-carbamoylphenyl)[1-(1,3-thiazol-5-ylmethyl)piperidin-4-ylidene]methyl]-N,N-dimethylbenzamide], the “relative humidity at which the form absorbs water and transforms into Form HCl3” value in data set [3] is given as greater than 85 % RH. In addition, in data set [3], the “relative humidity up to which the form is believed stable” value is listed as “up to 85 % RH”. The mass increase in data set [3] (DVS, 25° C., from 90 to 95% RH) was found to be 10.0%. The change in mass result in data set [3] (DVS, 25° C., increasing RH up to about 90% RH) is “approximately 3.3%”. Also, the “hygroscopicity (classification as per the European Pharmacopoeia)” value in data set [3] (DVS) is on record as “moderate hygroscopicity”; in data set [3] (DVS, listed as form HCl2), “moderately hygroscopic”. The water uptake result is reported as “approximately 2.2%” in data set [3] (DVS) and “approximately 2.2%” in data set [3] (DVS, listed as form HCl2). Moreover, the “form by HT-XRPD after the DVS cycle” value in data set [3] (25° C., listed as form HCl2) is on record as “conversion had taken place from form HCl2 to form HCl3”. The “form by XRPD after incubation” value in data set [4] (85% RH, room temperature) was “conversion into form HCl3 had taken place”. Also, in data set [5], the “time chemically stable in saline” value is given as “up to 1 week”. For the same compound, the “LCMS API” value in data set [5] (10 mg/mL, 5° C., 3 d) is on record as 99.9 area %; in data set [5] (10 mg/mL, 5° C., 4 d), 99.9 area %; in data set [5] (10 mg/mL, 5° C., 7 d), 99.9 area %; in data set [5] (10 mg/mL, 25° C., 0 d) it was 99.9 area %; in data set [5] (10 mg/mL, 25° C., 3 d), 99.9 area %; in data set [5] (10 mg/mL, 25° C., 4 d) it was 99.9 area %. Also, the “LCMS API” value in data set [5] (10 mg/mL, 25° C., 7 d) amounted to 99.9 area %; in data set [5] (10 mg/mL, 40° C., 3 d), 99.9 area %; in data set [5] (10 mg/mL, 40° C., 4 d), 99.9 area %; in data set [5] (10 mg/mL, 40° C., 7 d), 99.9 area %; in data set [5] (100 mg/mL, 5° C., 3 d), 99.9 area %; in data set [5] (100 mg/mL, 5° C., 4 d) it was 99.9 area %. The “LCMS API” value is recorded as 99.9 area % in data set [5] (100 mg/mL, 5° C., 7 d); 99.9 area % in data set [5] (100 mg/mL, 25° C., 0 d); 99.9 area % in data set [5] (100 mg/mL, 25° C., 3 d); 99.9 area % in data set [5] (100 mg/mL, 25° C., 4 d); 99.9 area % in data set [5] (100 mg/mL, 25° C., 7 d); 99.9 area % in data set [5] (100 mg/mL, 40° C., 3 d). Moreover, the “LCMS API” value in data set [5] (100 mg/mL, 40° C., 4 d) is 99.9 area %; in data set [5] (100 mg/mL, 40° C., 7 d), 100.0 area %; in data set [6] (1 week, 25° C./60% RH) it was 100 area %; in data set [6] (1 week, 40° C./75% RH), 100 area %; in data set [6] (1 week, 60° C./38% RH) it was 100 area %; in data set [6] (4 weeks, 25° C./60% RH), 100 area %. The “LCMS API” value in data set [6] (4 weeks, 40° C./75% RH) worked out at 100 area %; in data set [6] (4 weeks, 60° C./38% RH), 100 area %; in data set [6] (incubation time 0) it was 100 area %. The compound also registered a time physically stable in data set [6] (25° C./60% RH, 40° C./75% RH and 60° C./38% RH) of no less than 4 weeks. For the same compound, the TGA mass loss is given as 1.8 wt % in data set [6] (1 week, 25° C./60% RH); 1.9 wt % in data set [6] (1 week, 40° C./75% RH); 1.9 wt % in data set [6] (1 week, 60° C./38% RH); 1.5 wt % in data set [6] (4 weeks, 25° C./60% RH); 1.6 wt % in data set [6] (4 weeks, 40° C./75% RH); 1.9 wt % in data set [6] (4 weeks, 60° C./38% RH). In data set [6] (incubation time 0), this compound gave a TGA mass loss of 1.0 wt %. Also, the XRPD entry in data set [6] (1 week, 25° C./60% RH) is “HCl2”; in data set [6] (1 week, 40° C./75% RH), “HCl2”; in data set [6] (1 week, 60° C./38% RH) it was “HCl2”; in data set [6] (4 weeks, 25° C./60% RH), “HCl2”; in data set [6] (4 weeks, 40° C./75% RH), “HCl2”; in data set [6] (4 weeks, 60° C./38% RH), “HCl2”. In addition, in data set [6] (incubation time 0), the XRPD entry is given as “HCl2”. The bioavailability was 24% in data set [2] (oral 3 mg/kg); 35.5% in data set [2] (oral 10 mg/kg); 35% and 34.6% in data set [2] (oral 50 mg/kg).

On to `CN(C)C(=O)c1ccc(C(=C2CCN(Cc3cncs3)CC2)c2cccc(C(N)=O)c2)cc1` [Form HCl3, 4-[(3-carbamoylphenyl)[1-(1,3-thiazol-5-ylmethyl)piperidin-4-ylidene]methyl]-N,N-dimethylbenzamide], for which, in data set [3] (DVS, listed as form HCl3), the “hygroscopicity (classification as per the European Pharmacopoeia)” value is recorded as “moderately hygroscopic” and the water uptake entry was “approximately 8.0%”. Moreover, the “form by HT-XRPD after the DVS cycle” value in data set [3] (25° C., listed as form HCl3) is “form HCl3 was still present”. Besides, in data set [4] (50° C./1 mbar), the form after drying result is “poorly crystalline phase of Form HCl3; also recorded: less crystalline phase of Form HCl3”.
